Laboratory results: patent publication US10130642B2, “Neprilysin inhibitors” (THERAVANCE BIOPHARMA R&D IP, LLC, priority 2011, dated 2018)

molecular target: human NEP (Homo sapiens (Human), UniProt P08473); experiment: In vitro enzyme inhibition assay, inhibitor potencies at human NEP; conditions: not given
Sequence (P08473 52-750): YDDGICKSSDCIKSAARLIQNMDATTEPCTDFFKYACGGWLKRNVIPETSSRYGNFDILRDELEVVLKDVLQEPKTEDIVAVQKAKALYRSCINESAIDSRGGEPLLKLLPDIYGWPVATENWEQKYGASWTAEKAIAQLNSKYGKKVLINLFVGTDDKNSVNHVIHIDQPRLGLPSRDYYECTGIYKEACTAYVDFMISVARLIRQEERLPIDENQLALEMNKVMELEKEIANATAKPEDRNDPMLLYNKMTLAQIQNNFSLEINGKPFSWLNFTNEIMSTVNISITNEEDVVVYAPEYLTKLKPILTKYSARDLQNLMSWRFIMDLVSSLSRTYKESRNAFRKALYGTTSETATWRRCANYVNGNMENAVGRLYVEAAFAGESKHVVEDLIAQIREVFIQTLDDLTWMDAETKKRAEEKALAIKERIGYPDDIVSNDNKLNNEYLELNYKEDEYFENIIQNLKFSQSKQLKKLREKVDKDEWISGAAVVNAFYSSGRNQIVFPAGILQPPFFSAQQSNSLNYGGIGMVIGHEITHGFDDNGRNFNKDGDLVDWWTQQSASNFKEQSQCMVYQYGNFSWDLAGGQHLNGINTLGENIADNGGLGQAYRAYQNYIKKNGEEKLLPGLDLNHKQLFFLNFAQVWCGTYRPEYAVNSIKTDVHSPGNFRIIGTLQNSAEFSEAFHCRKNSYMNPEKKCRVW

`O=C(N[C@H](Cc1ccc(-c2ccccc2)cc1)C[C@@H](CO)C(=O)O)c1cc(O)n[nH]1` [Example 4-17, (2S,4S)-5-Biphenyl-4-yl-2-hydroxymethyl-4-[(5-hydroxy-2H-pyrazole-3-carbonyl)-amino]-pentanoic acid] and `O=C(O)c1cc(C(=O)N[C@H](Cc2ccc(-c3ccccc3)cc2)C[C@@H](CO)C(=O)O)[nH]n1` [Example 4-18, 5-((1S,3S)-1-Biphenyl-4-ylmethyl-3-carboxy-4-hydroxy-butylcarbamoyl)-1H-pyrazole-3-carboxylic acid] cannot be ordered by Ki: ≤ 1 nM for the first, ≤ 1 nM for the second.

First: CN(C)C(=O)c1cc(C(=O)N[C@H](Cc2ccc(-c3ccccc3)cc2)C[C@H](CO)C(=O)O)[nH]n1 [Example 4-20, (2R,4S)-5-Biphenyl-4-yl-4-[(5-dimethylcarbamoyl-2H-pyrazole-3-carbonyl)-amino]-2-hydroxymethyl-pentanoic acid]
Second: CN(C)C(=O)c1cc(C(=O)N[C@H](Cc2ccc(-c3ccccc3)cc2)C[C@@H](CO)C(=O)O)[nH]n1 [Example 4-21, (2S,4S)-5-Biphenyl-4-yl-4-[(5-dimethylcarbamoyl-2H-pyrazole-3-carbonyl)-amino]-2-hydroxymethyl-pentanoic acid]
The Ki of the first is higher: 12.6 to 100 nM for the first, 1.26 to 10 nM for the second. The second binds more tightly here.

`O=C(N[C@H](Cc1ccc(-c2ccccc2)cc1)C[C@@H](CO)C(=O)O)c1cc(C(=O)N2CCC2)n[nH]1` [Example 4-24, (2S,4S)-4-{[5-(Azetidine-1-carbonyl)-2H-pyrazole-3-carbonyl]-amino}-5-biphenyl-4-yl-2-hydroxymethyl-pentanoic acid] and `O=C(N[C@H](Cc1ccc(-c2ccccc2)cc1)C[C@@H](CO)C(=O)O)c1cc(C(=O)N2CCCC2)n[nH]1` [Example 4-25, (2S,4S)-5-Biphenyl-4-yl-2-hydroxymethyl-4-{[5-(pyrrolidine-1-carbonyl)-2H-pyrazole-3-carbonyl]-amino}-pentanoic acid] cannot be ordered by Ki: ≤ 1 nM for the first, ≤ 1 nM for the second.

`O=C(N[C@H](Cc1ccc(-c2ccccc2)cc1)C[C@@H](CO)C(=O)O)c1cc(-c2ccccc2Cl)n[nH]1` [Example 4-27, (2S,4S)-5-Biphenyl-4-yl-4-{[5-(2-chloro-phenyl)-2H-pyrazole-3-carbonyl]-amino}-2-hydroxymethyl-pentanoic acid] and `O=C(N[C@H](Cc1ccc(-c2cccc(F)c2)cc1)C[C@@H](CO)C(=O)O)c1cc(-c2ccccc2Cl)n[nH]1` [Example 4-29, (2S,4S)-4-{[5-(2-Chlorophenyl)-2H-pyrazole-3-carbonyl]-amino}-5-(3′-fluorobiphenyl-4-yl)-2-hydroxymethyl-pentanoic acid] cannot be ordered by Ki: ≤ 1 nM for the first, ≤ 1 nM for the second.

First: CCCCc1cc(C(=O)N[C@H](Cc2ccc(-c3ccccc3)cc2)C[C@@H](CO)C(=O)O)[nH]n1 [Example 4-28, (2S,4S)-5-Biphenyl-4-yl-4-[(5-butyl-2H-pyrazole-3-carbonyl)-amino]-2-hydroxymethyl-pentanoic acid]
Second: O=C(N[C@H](Cc1ccc(-c2ccccc2)cc1)C[C@@H](CO)C(=O)O)c1c[nH]c(O)n1 [Example 4-31, (2S,4S)-5-Biphenyl-4-yl-4-[(2-hydroxy-1H-imidazole-4-carbonyl)-amino]-2-hydroxymethyl-pentanoic acid]
The Ki of the first is lower: ≤ 1 nM for the first, 12.6 to 100 nM for the second. The first binds more tightly here.

`O=C(N[C@H](Cc1ccc(-c2cccc(F)c2)cc1)C[C@@H](CO)C(=O)O)c1cc(-c2ccccn2)n[nH]1` [Example 4-30, (2S,4S)-5-(3′-Fluorobiphenyl-4-yl)-2-hydroxymethyl-4-[(5-pyridin-2-yl-2H-pyrazole-3-carbonyl)-amino]-pentanoic acid] and `O=C(NC(Cc1ccc(-c2ccccc2)cc1)C[C@@H](CO)C(=O)O)c1cc(F)c2nn[nH]c2c1` (stereo partly drawn) [Example 4-33, (S)-5-Biphenyl-4-yl-4-[(7-fluoro-3H-benzotriazole-5-carbonyl)-amino]-2-hydroxymethyl-pentanoic acid] cannot be ordered by Ki: ≤ 1 nM for the first, ≤ 1 nM for the second.

Compared with `O=C(N[C@H](Cc1ccc(-c2cccc(Cl)c2)cc1)C[C@@H](CO)C(=O)O)c1ccc2nnn(O)c2c1` [Example 4-34, (2S,4S)-5-(3′-Chloro-biphenyl-4-yl)-4-[(3-hydroxy-3H-benzotriazole-5-carbonyl)-amino]-2-hydroxymethyl-pentanoic acid], `O=C(NC(Cc1ccc(-c2ccccc2)cc1)C[C@H](CO)C(=O)O)c1cc(Cl)c2nc[nH]c2c1` (stereo partly drawn) [Example 4-36, (R)-5-Biphenyl-4-yl-4-[(7-chloro-3H-benzoimidazole-5-carbonyl)-amino]-2-hydroxymethyl-pentanoic acid] is higher in Ki: ≤ 1 nM for the first, 1.26 to 10 nM for the second.

Compared with `Cc1nc2c(Cl)cc(C(=O)NC(Cc3ccc(-c4ccccc4)cc3)C[C@H](CO)C(=O)O)cc2[nH]1` (stereo partly drawn) [Example 4-38, (R)-5-Biphenyl-4-yl-4-[(7-chloro-2-methyl-3H-benzoimidazole-5-carbonyl)-amino]-2-hydroxymethyl-pentanoic acid], `O=C(NC(Cc1ccc(-c2ccccc2)cc1)C[C@@H](CO)C(=O)O)c1cnc2nn[nH]c2c1` (stereo partly drawn) [Example 4-43, (S)-5-Biphenyl-4-yl-2-hydroxymethyl-4-[(1H-[1,2,3]triazolo[4,5-b]pyridine-6-carbonyl)-amino]-pentanoic acid] is lower in Ki: 12.6 to 100 nM for the first, 1.26 to 10 nM for the second. The second binds more tightly here.

`O=C(N[C@H](Cc1ccc(-c2ccccc2)cc1)C[C@@H](CO)C(=O)O)c1cc(O)no1` [Example 4-45, (2S,4S)-5-Biphenyl-4-yl-4-[(3-hydroxy-isoxazole-5-carbonyl)-amino]-2-hydroxymethyl-pentanoic acid] and `C[C@@](CO)(C[C@@H](Cc1ccc(-c2ccccc2)cc1)NC(=O)c1cc(O)no1)C(=O)O` [Example 6-19, (2S,4R)-5-Biphenyl-4-yl-4-[(3-hydroxy-isoxazole-5-carbonyl)-amino]-2-hydroxymethyl-2-methyl-pentanoic acid] cannot be ordered by Ki: ≤ 1 nM for the first, ≤ 1 nM for the second.

`O=C(N[C@H](Cc1ccc(-c2ccccc2)cc1)C[C@@H](CO)C(=O)O)c1cnc(O)nc1` [Example 4-47, (2S,4S)-5-Biphenyl-4-yl-2-hydroxymethyl-4-[(2-hydroxy-pyrimidine-5-carbonyl)-amino]-pentanoic acid] and `C[C@@](CO)(C[C@@H](Cc1ccc(-c2ccccc2)cc1)NC(=O)c1cnc(O)nc1)C(=O)O` [Example 6-18, (2S,4R)-5-Biphenyl-4-yl-2-hydroxymethyl-4-[(2-hydroxy-pyrimidine-5-carbonyl)-amino]-2-methyl-pentanoic acid] cannot be ordered by Ki: ≤ 1 nM for the first, ≤ 1 nM for the second.

Compared with `C[C@@](CO)(C[C@@H](Cc1ccc(-c2ccccc2)cc1)NC(=O)c1nc(Cl)n[nH]1)C(=O)O` [Example 6-1, (2S,4R)-5-Biphenyl-4-yl-4-[(5-chloro-2H-[1,2,4]triazole-3-carbonyl)-amino]-2-hydroxymethyl-2-methyl-pentanoic acid], `C[C@@](CO)(C[C@@H](Cc1ccc(-c2ccccc2)cc1)NC(=O)c1nc(O)n[nH]1)C(=O)O` [Example 6-2, (2S,4R)-5-Biphenyl-4-yl-2-hydroxymethyl-4-[(5-hydroxy-2H-[1,2,4]triazole-3-carbonyl)-amino]-2-methyl-pentanoic acid] is higher in Ki: 1.26 to 10 nM for the first, 12.6 to 100 nM for the second.

Compared with `C[C@](CO)(C[C@@H](Cc1ccc(-c2ccccc2)cc1)NC(=O)c1cnn[nH]1)C(=O)O` [Example 6-3, (2R,4R)-5-Biphenyl-4-yl-2-hydroxymethyl-2-methyl-4-[(3H-[1,2,3]triazole-4-carbonyl)-amino]-pentanoic acid], `C[C@@](CO)(C[C@@H](Cc1ccc(-c2cccc(F)c2)cc1)NC(=O)c1cnn[nH]1)C(=O)O` [Example 8-1, (2S,4R)-5-(3′-Fluorobiphenyl-4-yl)-2-hydroxymethyl-2-methyl-4-[(3H-[1,2,3]triazole-4-carbonyl)-amino]-pentanoic acid] is lower in Ki: 12.6 to 100 nM for the first, ≤ 1 nM for the second. The second binds more tightly here.

Compared with `C[C@@](CO)(C[C@@H](Cc1ccc(-c2ccccc2)cc1)NC(=O)c1cn(O)nn1)C(=O)O` [Example 6-4, (2S,4R)-5-Biphenyl-4-yl-2-hydroxymethyl-4-[(1-hydroxy-1H-[1,2,3]triazole-4-carbonyl)-amino]-2-methyl-pentanoic acid], `C[C@@](CO)(C[C@@H](Cc1ccc(-c2ccccc2)cc1)NC(=O)c1cn(Cc2ccccc2)nn1)C(=O)O` [Example 6-6, (2S,4R)-4-[(1-Benzyl-1H-[1,2,3]triazole-4-carbonyl)-amino]-5-biphenyl-4-yl-2-hydroxymethyl-2-methyl-pentanoic acid] is higher in Ki: ≤ 1 nM for the first, 12.6 to 100 nM for the second. The first binds more tightly here.

First: CC(CO)(C[C@@H](Cc1ccc(-c2ccccc2)cc1)NC(=O)c1cc(C(=O)O)n[nH]1)C(=O)O (stereo partly drawn) [Example 6-15, 5-((R)-1-Biphenyl-4-ylmethyl-3-carboxy-4-hydroxy-3-methyl-butylcarbamoyl)-1H-pyrazole-3-carboxylic acid]
Second: CC(=O)c1cc(C(=O)N[C@H](Cc2ccc(-c3ccccc3)cc2)C[C@@](C)(CO)C(=O)O)[nH]n1 [Example 6-16, (2S,4R)-4-[(5-Acetyl-2H-pyrazole-3-carbonyl)-amino]-5-biphenyl-4-yl-2-hydroxymethyl-2-methyl-pentanoic acid]
The Ki of the first is lower: ≤ 1 nM for the first, 12.6 to 100 nM for the second.

Compared with `C[C@@](CO)(C[C@@H](Cc1ccc(-c2ccccc2)cc1)NC(=O)c1cc(O)n[nH]1)C(=O)O` [Example 6-17, (2S,4R)-5-Biphenyl-4-yl-2-hydroxymethyl-4-[(5-hydroxy-2H-pyrazole-3-carbonyl)-amino]-2-methyl-pentanoic acid], `C[C@@](CO)(C[C@@H](Cc1ccc(-c2ccccc2F)cc1)NC(=O)c1cnn[nH]1)C(=O)O` [Example 8-2, (2S,4R)-5-(2′-Fluorobiphenyl-4-yl)-2-hydroxymethyl-2-methyl-4-[(3H-[1,2,3]triazole-4-carbonyl)-amino]-pentanoic acid] is lower in Ki: 1.26 to 10 nM for the first, ≤ 1 nM for the second.

Work on `C[C@@](CO)(C[C@@H](Cc1ccc(-c2ccc(F)cc2)cc1)NC(=O)c1cnn[nH]1)C(=O)O` [Example 8-3, (2S,4R)-5-(4′-Fluorobiphenyl-4-yl)-2-hydroxymethyl-2-methyl-4-[(3H-[1,2,3]triazole-4-carbonyl)-amino]-pentanoic acid] yielded a Ki of 12.6 to 100 nM.

same assay, conditions: pKi values at human NEP; recombinant human NEP, fluorogenic peptide substrate, 37° C.

For `COCCN(C)C(=O)c1cc(C(=O)N[C@H](Cc2ccc(-c3ccccc3)cc2)C[C@@H](CO)C(=O)O)[nH]n1` [Example 4-22], the pKi was 8.0-8.9.
For `C[C@@](CO)(C[C@@H](Cc1ccc(-c2cccc(F)c2)cc1)NC(=O)c1cc(C(=O)O)n[nH]1)C(=O)O` [Example 7, 5-[(1R,3S)-3-Carboxy-1-(3′-fluorobiphenyl-4-ylmethyl)-4-hydroxy-3-methyl-butylcarbamoyl]-1H-pyrazole-3-carboxylic Acid], the pKi was ≥9.0.
